Laboratory results published in patent US20080103198A1, “METHODS FOR TREATMENT OF COCHLEAR AND VESTIBULAR DISORDERS” (priority 2006, published 2008).
Several values for one entry are separate records, joined by “and”; a condition that tells them apart may be missing. Equal values may be shown once.

What was measured:
Li-pilo induced SE = experiment: Lithium-pilocarpine model (Example 1): Timm staining, mossy fiber sprouting; type: in vivo, rat
Description: At 2 months after the onset of spontaneous recurrent seizures, mossy fiber sprouting was examined on rats in the chronic period exposed to the test compound or DZP and in 3 saline-saline rats. Animals were deeply anaesthetized and perfused transcardially with saline followed by 100 ml of 1.15% (w/v) Na2S in 0.1 M phosphate buffer, and 100 ml of 4% (v/v) formaldehyde in 0.1 M phosphate buffer. Brains were removed from skull, post-fixed in 4% formaldehyde during 3-5 h and 40 μm sections were cut on a sliding vibratome and mounted on gelatin-coated slides.
The following day, sections were developed in the dark in a 26° C. solution of 50% (w/v) arabic gum (160 ml), sodium citrate buffer (30 ml), 5.7% (w/v) hydroquinone (80 ml) and 10% (w/v) silver nitrate (2.5 ml) during 40-45 min. The sections were then rinsed with tap water at 40° C. during at least 45 min, rinsed rapidly with distilled water and allowed to dry. They were dehydrated in ethanol and coverslipped.
Mossy fiber sprouting was evaluated according to criteria previously described in dorsal hippocampus (Cavazos et al., 1991, J Neurosci 11:2795-2803), which are follows: 0—no granules between the tips and crest of the DG; 1—sparse granules in the supragranular region in a patchy distribution between the tips and crest of DG; 2—more numerous granules in a continuous distribution between the tips and crest of DG; 3—prominent granules in a continuous pattern between tips and crest, with occasional patches of confluent granules between tips and crest; 4—prominent granules that form a confluent dense laminar band between tips and crest and 5—confluent dense laminar band of granules that extends into the inner molecular layer.

Li-Pilo SE = experiment: Lithium-pilocarpine model (Example 2): mortality and latency to SRS; type: in vivo, rat; parameters: degree of mortality: concentration or dose not given beside the values; conditions: for mortality over the first 48 h after SE: early cell counting group; for degree of mortality: latency to SRS / late cell counting group
Description: The model induced in rats by pilocarpine associated with lithium (Li-Pilo) reproduces most of the clinical and neurophysiological features of human temporal lobe epilepsy (See, Turski et al., 1989; Synapse 3:154-171; Cavalheiro, 1995, Ital J Neurol Sci 16:33-37). In adult rats, the systemic administration of pilocarpine leads to SE that may last for up to 24 h. The lethality rate reaches 30-50% during the first days. In the surviving animals, neuronal damage predominates within the hippocampal formation, the piriform and entorhinal cortices, thalamus, amygdaloid complex, neocortex and substantia nigra.
In the present study, we tested the effects of different doses of various doses of test compound, i.e. 30, 60, 90 and 120 mg/kg (referred to herein as RWJ30, RWJ60, RWJ90 and RWJ120) using the same design as in the previous study. The treatment was started one hour after the onset of status epilepticus (SE) and the animals were treated with a second injection of the same dose of the drug. This early treatment of SE was followed by a 6 day test compound treatment. This report concerns the effects of the four different doses of test compound on neuronal damage in hippocampus and parahippocampal cortices. The study on the latency to the onset of epilepsy is still incomplete but we will show the data we have got at present which have been performed on a limited group of animals. The latency to spontaneous epileptic seizures was correlated on the same rats to the number of neurons remaining in the areas involved in the circuit of seizures.
Adult male Sprague-Dawley rats provided by Janvier Breeding Center (Le Genest-St-Isle, France) were housed under controlled, uncrowded standard conditions at 20-22° C. (light/dark cycle, 7.00 a.m.-7.00 p.m. lights on), with food and water available ad libitum. All animal experimentation was performed in accordance with the rules of the European Communities Council Directive of Nov. 24, 1986 (86/609/EEC), and the French Department of Agriculture (License No 67-97).
All rats received lithium chloride (3 meq/kg, i.p., Sigma, St Louis, Mo., U.S.A.) and about 20 h later, all animals received also methylscopolamine bromide (1 mg/kg, s.c., Sigma) that was administered to limit the peripheral effects of the convulsant. SE was induced by injecting pilocarpine hydrochloride (25 mg/kg, s.c., Sigma) 30 min after methylscopolamine. The effects of increasing doses of test compound (RWJ) were studied in 5 groups of rats. The animals received either 2.5 mg/kg diazepam, i.m., (DZP), or 30, 60, 90 or 120 mg/kg of test compound (RWJ30, RWJ60, RWJ90, RWJ120), i.p., at 1 h after the onset of SE. The control group received vehicle instead of pilocarpine and test compound. The rats surviving SE were then injected about 10 h after the first test compound injection with a second i.p. injection of 1.25 mg/kg DZP for the DZP group or of the same dose of test compound as in the morning and were maintained under a twice daily test compound treatment for 6 additional days (s.c.) while DZP rats received a vehicle injection. The effects of the four doses of test compound on the latency to occurrence of spontaneous recurrent seizures (SRS) were investigated by daily video recording of the animals for 10 h per day.

Q: Which results are given for `CN1C(=O)CN=C(c2ccccc2)c2cc(Cl)ccc21` [DZP, diazepam, reference compound]?
A: Timm score, upper blade of dentate gyrus (mean) (Li-pilo induced SE; DZP, n=9): 2.8±0.8; latency to spontaneous seizures (mean) (Li-Pilo SE; DZP group, 7 rats): 18 ± 8 days; mortality over the first 48 h after SE (Li-Pilo SE; DZP 2.5 mg/kg i.m.): 47%; degree of mortality (Li-Pilo SE; DZP): 30%

Q: With `NC(=O)OC[C@@H](O)c1ccccc1Cl` [test compound] as the compound, how does the “Timm score, upper blade of dentate gyrus (mean)” value (shortened to “Timm score, upper blade”) (Li-pilo induced SE; 10 mg/kg, n=7) read?
A: 1.5±0.6

Q: What about the “Timm score, upper blade” value (Li-pilo induced SE; 30 mg/kg, n=10) of the same compound?
A: 2.6±1.0

Q: And the Timm score (Li-pilo induced SE; 60 mg/kg, subgroup with early SRS occurrence, n=6)?
A: 1.8±0.6

Q: What about the Timm score (Li-pilo induced SE; 60 mg/kg, subgroup with late occurrence or absence of SRS, n=5) of the same compound?
A: 1.2±0.6

Q: And the “Timm score, upper blade” value (Li-pilo induced SE; 60 mg/kg, whole group, n=11)?
A: 1.5±0.7

Q: And the “latency to spontaneous seizures, individual rats” value (Li-Pilo SE; 30 mg/kg, two rats)?
A: 8 days and 9 days

Q: And the “first spontaneous seizure after SE, individual rats” value (“first spontaneous seizure after SE” for short) (Li-Pilo SE; 60 mg/kg, 3 rats)?
A: 7 days and 8 days and 38 days

Q: And the “first spontaneous seizure after SE” value (Li-Pilo SE; 90 mg/kg, 3 rats)?
A: 9 days and 10 days and 51 days

Q: And the “first spontaneous seizure after SE” value (Li-Pilo SE; 120 mg/kg, 2/4 rats with prolonged latency)?
A: 79 days and 44 days

Q: What about the “recording time following SE without any seizure” value (Li-Pilo SE; 120 mg/kg, the two other rats) of the same compound?
A: > 5 months

Q: What about the “mortality over the first 48 h after SE” value (Li-Pilo SE; RWJ30 (30 mg/kg i.p.)) of the same compound?
A: 43%

Q: And the “mortality over the first 48 h after SE” value (Li-Pilo SE; RWJ60 (60 mg/kg i.p.))?
A: 0%

Q: What about the “mortality over the first 48 h after SE” value (Li-Pilo SE; RWJ90 (90 mg/kg i.p.)) of the same compound?
A: 0%

Q: And the “mortality over the first 48 h after SE” value (Li-Pilo SE; RWJ120 (120 mg/kg i.p.))?
A: 47%

Q: What about the degree of mortality (Li-Pilo SE; RWJ30) of the same compound?
A: 50%

Q: What about the degree of mortality (Li-Pilo SE; RWJ60) of the same compound?
A: 0%

Q: And the degree of mortality (Li-Pilo SE; RWJ90)?
A: 0%

Q: What about the degree of mortality (Li-Pilo SE; RWJ120) of the same compound?
A: 0%
